From PMC6173696, “Structural properties of a haemophore facilitate targeted elimination of the pathogen Porphyromonas gingivalis” (Nature Communications, 2018) come the findings set out here.

For data set [1], the system named is H413 gingival epithelial cells. The class given is cell-based, Human. The following applies: concentrations above 0.5 µM; 1 h or 2 h. On the procedure: As P8 could penetrate epithelial cells, the cell membrane integrity was tested using lactate dehydrogenase (LDH) assay. LDH is readily released following cellular membrane damage. As per manufacturer’s instructions (Thermo Fisher Scientific, Australia), H413 cells were treated with P8 at various concentrations and incubated for 1 h and 2 h, respectively. The drug solubilisation medium DMSO and metronidazole were used as controls. The positive control provided by the manufacturer was used to determine the maximal LDH release and the ratio of corrected values obtained for the experimental groups relative to maximum LDH release represented cytotoxicity. The fluorescence intensity was recorded on SpetraMax® i3 (Molecular Devices, Australia).
Supplementary Figure 23. (A) UV-vis spectra of 10 µM P8 alone and in the presence of 10 µM HusA. (B) Stability assay of P8 in the presence of gingival epithelial cell lysate. The intensity of P8 fluorescence was applied to monitor the stability of P8 in the presence of cell lysate. (C) Confocal microscope analysis of the progressive uptake of P8 by H413 gingival epithelial cell over a 2 h period.
The fluorescent P8 is shown in red and the nuclei stained by DAPI are shown in blue. Scale bar, 25 µm. (D) Lactate dehydrogenase cytotoxicity assay of H413 gingival epithelial cells treated with P8 at various concentrations for 1 h or 2 h incubation. […]

Data set [2] has as its system P. gingivalis wild-type W83. Briefly: Checkerboard / broth micro-dilution assay (MIC, MBC), wild-type W83. The class given is cell-based, Porphyromonas gingivalis. From the text: Fig. 5 A prototype DPIX-conjugated antibiotic binds HusA and inhibits P. gingivalis. a The chemical structure of the deuteroporphyrin-lysine-metronidazole adduct, P8. b NMR signal intensity changes (black) and ^1H^N CSPs (red/green) for HusA upon addition of P8 (measured from ^15N-HSQC spectra shown in Supplementary Figure 21). c In silico docking of P8 to the energy minimized structure of HusA (conformer set 1), with residues experiencing NMR signal loss (orange) or CSPs (red/green) mapped to the structure (colouring as described in Fig. 2d). d Scaled and corrected fluorescence at 335 nm during titration of 1 μM of HusA with increasing concentrations of P8, haemin or DPIX. e Comparison of P8 inhibitory effect towards P. gingivalis wild-type W83 and husA mutants using checkerboard analysis. Serial dilutions of antibiotics (horizontal axis) were applied to a 96-well plate with different P. gingivalis strains (vertical axis). Serial dilutions of DPIX were also supplemented into wild-type W83 group to evaluate the competitive effect against P8. Absorption at OD600 of each well was recorded after 24 h of incubation. The OD600 of each strain grown in the absence of antibiotics was defined as 100% growth, which was applied to normalise the reading collected from other wells. The normalised percentage of each well was plotted in the checkerboard. Metronidazole alone and in combination with PPIX or DPIX was applied as control. f Intracellular killing assay of P8 antibiotics. Gingival H413 epithelial cells were infected by P. gingivalis W83 and then treated with P8 at various concentrations. Recovered bacteria were determined by CFU count. Metronidazole and DMSO were used as control. Three independent experiments with triplicate assays were conducted. […]

Data set [3] concerns HusA NNNA. Briefly: Haemin binding to HusA mutant with all four mutations (NNNA), UV-vis and fluorescence. The arrangement: species or system Porphyromonas gingivalis. The note with it: mutant incorporating all four mutations (L123, V124, W130, Y164). On the procedure: All absorbance spectra were recorded at room temperature using 10-mm quartz cuvettes on a Shimadzu UV-1601 or Jasco V-630 spectrophotometer. Mixtures of HusA/mutant with porphyrins were prepared by dissolving porphyrin stocks in standard buffer to a final concentration of 5–20 μM with a 1–1.5 molar ratio of protein to porphyrin, as specified in the relevant figure legends. PPIX:HusA mixtures were prepared by incremental addition of 2–4 μM HusA with a 10–15 min wait after each addition of HusA.
The quenching of intrinsic tryptophan fluorescence of HusA upon porphyrin additions was measured using a Carey Eclipse Fluorescence Spectrophotometer (Agilent) set to a photo multiplier effect (PME) of 850. A 5-mm path length quartz cuvette was used and all spectra were acquired at room temperature. Excitation was set to 295 nm and emission was measured from 300 nm to 500 nm using excitation/emission slit widths of 5 nm. Binding assays were performed at a protein concentration of 1 μM HusA in standard buffer at a working volume of 0.5 mL. […] The fluorescence quenching of HusA by PPIX was investigated in a similar manner with the following difference: the fluorescence intensities of ten 1 μM HusA samples were measured each with increasing amounts of PPIX after a 2-h incubation period to allow equilibrium to be reached. […]

Data set [4] addresses T1, p22HBP (Mus musculus, UniProt Q9R257).
T1 sequence (Q9R257 1-190): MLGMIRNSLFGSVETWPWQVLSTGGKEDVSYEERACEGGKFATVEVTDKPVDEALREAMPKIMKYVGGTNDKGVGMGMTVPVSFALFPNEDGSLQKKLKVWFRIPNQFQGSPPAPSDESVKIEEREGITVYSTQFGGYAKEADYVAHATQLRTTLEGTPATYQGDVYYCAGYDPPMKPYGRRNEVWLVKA
Briefly: Acid-alkaline transition of UV-vis spectra, haemin bound to p22HBP. The note with it: haemin bound to murine p22HBP. It counts as physicochemical. The procedure: Supplementary Figure 16. Acid-alkaline transition in UV-vis spectra of various haem binding proteins. (Top) UV-visible spectra (units of wavelength are nm) used to generate the pH titration curves shown in Figure 2h and in the bottom panel. (Bottom) Acid-alkaline titration of 5 µM haemin in presence of 7 µM IsdH, 5 µM IsdB, 7 µM IsdH(Y642A) and 7 µM p22HBP. All proteins are in holo form. See Fig 2h legend for buffer conditions. Absorbance A600–A650 values are plotted except for IsdH and IsdB, for which A630–A600 is plotted (to avoid negative values). […]

As for `CC1=Cc2cc3[nH]c(cc4nc(cc5[nH]c(cc1n2)cc5C)C(C)=C4CCC(=O)N[C@@H](CCCCNC(=O)OC(C)(C)C)C(=O)NCCn1c([N+](=O)[O-])cnc1C)c(CCC(=O)O)c3C` [P8], the “cell toxicity (LDH release)” value in data set [1] is “does not induce cell toxicity”. Further, the MBC in data set [2] (Porphyromonas gingivalis, no growth recovery on eTSB agar plate, read-out: minimal bactericidal concentration) lay in the range of 10 to 20 µM. Also, the MIC in data set [2] (Porphyromonas gingivalis, planktonic W83, 24 h, anaerobic, read-out: minimal inhibitory concentration) was 1.25 to 2.5 µM. The “killing of extracellular P. gingivalis” value in data set [2] (planktonic W83) was “more effective than metronidazole”.

Consider `C=CC1=C(C)c2cc3[nH]c(cc4nc(cc5[nH]c(cc1n2)c(C)c5CCC(=O)O)C(CCC(=O)O)=C4C)c(C)c3C=C.[Fe+3]` [haemin], for which the binding to haemin result in data set [3] is reported as “minimal binding”. Besides, in data set [4], the “pKa of acid-alkaline transition” value was 6.2.
